One series addresses T1, Hsc70 (Homo sapiens, UniProt P11142).
T1 construct: 6X His-tag (TEV-cleavable) (cleaved yes); made in house; host or cells: E. coli Rosetta (DE3)
The series can be described thus: ATPase activity of Hsc70 (malachite green). It counts as biochemical. The settings on record: Hsc70 2 μM, peptide 200 μM, 1 mM ATP, HMK buffer, 1 mM DTT, 37 °C, 1 h, malachite green 620 nm; SD, three independent experiments. An excerpt:
Hsp70s consist of an nucleotide-binding domain (NBD) and a substrate-binding domain (SBD). Hsc70 works using an allosteric mechanism whereby substrate binding at the SBD stimulates the ATP hydrolysis rate at the nucleotide-binding domain. The basal ATPase rate of Hsp70 is low, usually about 0.05 ± 0.009 mol Pi/mol protein, and increases when it is stimulated by binding of a peptide to the canonical site in the SBD. We measured the ability of SNAP-25 peptides SNNP and SNCP to stimulate the ATPase rate of Hsc70 (Fig. 5A). SNNP and SNCP binding cause a 1.5-fold increase of the Hsc70 ATPase rate over basal (observed rates upon addition of SNNP and SNCP were 0.089 ± 0.008 and 0.080 ± 0.005, respectively). In order to confirm that peptides are indeed binding at the canonical binding site of Hsc70, we used the V438F mutant that blocks the binding site ([37]). […] The addition of CSPαJ stimulates the ATPase activity of Hsc70 ∼4-fold with and without peptides.
Figure 5 SNN and SNC peptides interact with the canonical substrate-binding site of Hsc70.A, ATPase activity of Hsc70 (2 μM) in the absence (gray) and presence of 200 μM SNNP (orange) and SNCP (green) peptides. Error bars represent the SDs from three independent experiments. B, binding of SNAP-25 (black), SNNP (orange), LoopP (blue), and SNCP (green) peptides to Hsc70 followed by competition for FITC-p5 peptide using fluorescence anisotropy. Increasing concentrations of the competitors were added to a complex of Hsc70 (5 μM) and FITC-p5 peptide (50 nM). Error bars represent SDs from three independent experiments. […]
We performed ATPase assays to observe the activity of Hsc70 in the presence of SNAP25 peptides. […] Absorbance readings were taken at 620 nm using a BioTek plate reader. […]
(C) ATPase activity of Hsc70 (at 2 μM) in the absence (grey) and presence of 200 μM SNNP (orange) and L(Loop)-SNCP (green) peptides, and in the absence and presence of CSPa-J and CSPa-J/Apg2. The statistical significance was calculated using one-way ANOVA test with Sidak’s multiple comparison and the Hsc70 ATPase activity […]

The test system of series [1] is SNAP-25. The series is described as follows: Far-UV CD. It counts as physicochemical. The conditions noted are these: far-UV CD 200–250 nm, 22 °C (Fig. S1). On the procedure:
SNAP-25 has four native cysteines that are palmitoylated upon interaction with the membrane. […] For all of our studies, the SNAP-25 CS mutant was used unless otherwise mentioned.
The far-UV CD spectra (200–250 nm) were recorded on a Jasco J-1500 Circular Dichroism Spectrophotometer at 22 °C. The SNAP-25 WT, SNAP-25, and mixture of SNAP-25 and Hsc70 were taken in a 1 mm path length quartz cuvette. Figures show the average of ten scans where the buffer baselines were subtracted. Data were plotted using software using the Origin (Pro) program (OriginLab Corp).

The test system of series [2] is SNAP-25. The conditions noted are these: also Fig. S1; cited from earlier work. An excerpt:
SNAP-25 has four native cysteines that are palmitoylated upon interaction with the membrane. […] For all of our studies, the SNAP-25 CS mutant was used unless otherwise mentioned. We assessed formation of the Hsc70-SNAP-25 complex by CD and found no significant conformational ...

The test system of series [3] is SNARE complex with syntaxin and synaptobrevin. The series is described as follows: SDS-resistant SNARE complex formation (SDS-PAGE). The settings on record: without Hsc70, mixed with syntaxin and synaptobrevin, 1 M NaCl, 4 °C. It counts as biochemical. On the procedure: We took aliquots of SNAP-25 at different time points of the aggregation reaction (at 0 h, in lag phase and at 64 h in the log or saturation phase, Fig. 2A) and mixed them with the SNARE motifs of syntaxin and synaptobrevin to allow the formation of the SNARE complex.
Figure 6 Hsc70 facilitates incorporation of SNAP-25 into the SNARE complex in vitro. SDS-PAGE of SNAP-25 taken from the aggregation reactions (Fig. 2) at 0 h and 64 h after the initiation, without (left) and with Hsc70 (right), and mixed with syntaxin and synaptobrevin for the time indicated below each SDS-PAGE. SNAP-25 is expressed and purified from E. coli; a minor amount of the bacterial Hsp70 homolog DnaK (∼70 kDa) may copurify with SNAP-25, explaining the presence of higher molecular weight bands, with its proteolysis potentially occurring during ∼64-h SNAP-25 aggregation reactions. For synaptobrevin, we attribute the higher molecular weight bands to incomplete cleavage of GST-tagged synaptobrevin.
The SNARE motifs were mixed in an equimolar ratio in the following order: synaptobrevin-2 (29–93), syntaxin-1A (191–253), and SNAP-25 taken from the aggregation reaction, in the presence of 1 M NaCl. The assembly reaction was incubated at 4 °C overnight while rotating. The SNARE motifs were concentrated using a 30-kDa molecular weight cutoff Amicon centrifugation filters and run on 4 to 20% gradient SDS-PAGE.

T1 sequence (P11142 whole entry): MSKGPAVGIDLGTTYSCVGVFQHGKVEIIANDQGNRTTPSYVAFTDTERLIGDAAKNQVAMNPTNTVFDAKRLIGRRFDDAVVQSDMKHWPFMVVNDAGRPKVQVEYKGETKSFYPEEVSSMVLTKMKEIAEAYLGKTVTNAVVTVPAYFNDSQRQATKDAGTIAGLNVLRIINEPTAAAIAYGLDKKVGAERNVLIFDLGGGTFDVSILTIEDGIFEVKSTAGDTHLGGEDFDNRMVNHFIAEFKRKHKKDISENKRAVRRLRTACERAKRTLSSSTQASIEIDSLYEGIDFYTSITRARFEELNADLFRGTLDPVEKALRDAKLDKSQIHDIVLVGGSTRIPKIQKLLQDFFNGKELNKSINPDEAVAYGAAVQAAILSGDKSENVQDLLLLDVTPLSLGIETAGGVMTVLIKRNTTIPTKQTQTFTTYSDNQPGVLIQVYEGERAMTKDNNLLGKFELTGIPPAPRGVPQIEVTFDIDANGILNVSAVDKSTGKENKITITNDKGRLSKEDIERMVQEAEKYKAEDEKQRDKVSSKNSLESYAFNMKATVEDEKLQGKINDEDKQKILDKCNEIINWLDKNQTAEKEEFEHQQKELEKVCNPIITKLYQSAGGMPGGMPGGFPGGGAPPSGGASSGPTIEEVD

As to “EREQMAISGGFIRR [SNCP, peptide … from the LOOP-SNC domain of SNAP-25]”, the “ATPase rate of Hsc70 upon addition of peptide” value on Hsc70 is recorded as 0.080 ± 0.005.

In the case of “RRMLQLVEESK [SNNP, peptide … from the SNN domain of SNAP-25]”, at Hsc70, the “ATPase rate of Hsc70 upon addition of peptide” value is reported as 0.089 ± 0.008.

For the substance “synaptosomal-associated 25 kDa protein [SNAP-25]”, the “conformational change upon Hsc70-SNAP-25 interaction” value in the series on SNAP-25 [1] is given as “no significant conformational change”. In the series with SNAP-25 [2], the “secondary structure by CD” value is “disordered with nascent helical tendencies”. In addition, in series [3], the “SNARE complex formation by SNAP-25 taken at 0 h of aggregation” value is recorded as “forms SDS-resistant SNARE complexes” and the “SNARE complex formation by SNAP-25 taken at 64 h of aggregation” value was “unable to form the SNARE complexes”.
